Experimental data from patent US20020159969A1, “Small peptide-based therapeutics for reversing cancer-associated MUC-1 mucin-induced immunosuppression” (priority 1997, published 2002).

How the values were obtained:
[1] = test system: human T-cell cultures; experiment: Mixed lymphocyte reaction / T-cell proliferation (3H-thymidine incorporation) with affinity purified MUC-1 mucin; format: cell-based; settings: purified MUC-1 mucin added to human T-cell cultures; FIG. 1
Method: The mixed lymphocyte reaction is conducted by mixing the lymphocytes of HLA disparate individuals in in vitro tissue cultures. The “responder population” in this experiment is purified T-cells from one population, while the “stimulator” population in this experiment is the peripheral blood lymphocytes obtained from an HLA mismatched individual donor. The two cell populations were mixed and cultured either in the presence or absence of various doses of B27.29 affinity purified MUC-1 mucin that was purified from a pleural effusion fluid. The results of this experiment are depicted in FIG. 1.
In the experiment depicted in FIG. 1, 10^6 T-cells were cultured in AIM V medium in presence of 10^6 allo-PBLs (mitomycin C treated) with or without the indicated concentration of affinity purified MUC1 or OSM for 6-7 days. At this time the T-cells were harvested and plated at 10^5/well in 96 well flat bottom plates and the polyclonal stimuli allo-PBLs (10^5/well), or anti-CD3 (1 μg/ml) or PHA (0.2 μg/ml), in presence or absence of MUC1 or OSM for 4 days. Each group was set up in a replicate of five wells. ^3H-thymidine (1 μCi/well) was added and the culture plates were further incubated for 18-24 h before harvesting. ^3H-thymidine incorporation into the DNA of proliferating T-cells was measured by liquid scintillation counting. […]

[2] = test system: T cells; experiment: T cell proliferation assay with allo PBLs (3H-thymidine incorporation) with synthetic MUC-1 tandem repeat peptides; format: cell-based, human; settings: peptide 10 μg/ml, 6-7 days then 5 days, FIG. 2
Method: Enriched T cell populations were purified from buffy coats obtained from normal red cross donors using nylon wool columns by previously reported procedures. […] For the allo MLR, mitomycin C treated allogeneic PBLs were co-cultured with purified T cells in the presence or absence of affinity purified MUC-1 mucin or control OSM. In most of the experiments, the T cells were cultured 6-7 days in AIM V medium in the absence or presence of MUC-1, MUC-1 derivative or OSM at the indicated concentration. After this time, the T cells were harvested, washed and cultured as indicated.
For the experiment depicted in FIG. 2, purified T cells (10^6/ml) were cultured in AIM V medium with allo PBLs in the absence or presence of MUC-1, MUC-1 derivative or OSM 10 μg/ml for 6-7 days. T cells were harvested and plated in 96 well flat bottom plates at 10^5/well with allo PBLs (10^5/well), in the presence or absence of affinity purified MUC-1, MUC-1 derivative or OSM. Control cultures were treated with either 50 U/ml IL-2 or 1 μg/ml anti-CD28 Mab. After 4 days of culture, ^3H-thymidine (1 μCi/well) was added. The cells were harvested on the fifth day and ^3H-thymidine incorporation was measured by liquid scintillation.

[3] = test system: T-cells; experiment: Relief of 100 mer MUC1 peptide-induced suppression/anergy of T-cell proliferation (allo-PBLs, 3H-thymidine incorporation); format: cell-based, human; settings: 100 mer MUC1 peptide 25 μg/ml; 16 mer at varying doses; FIG. 3
Method: In the experiment of FIG. 3, purified T-cells (10^6/ml) were cultured in AIM V medium with allo-PBLs in the presence (100 mer MUC1 peptide group; right panel) or absence (media group; left panel) of 100 mer MUC1 synthetic peptide (25 μg/ml) for 6-7 days. At this time, the T-cells were harvested and plated in 96 well flat bottom plates at 10^5/well with allo-PBLs (10^5/well) in the presence or absence of 100 mer MUC1 peptide (25 μg/ml), and the 16 mer MUC1 peptide (less than one tandem repeat) at varying doses. The wells were pulsed with ^3H-thymidine (1 μCi/well) on the fourth day of culture followed by harvesting on the fifth day. ^3H-Thymidine incorporation into the DNA of proliferating T-cells was measured by liquid scintillation counter. Data are shown as mean CPM±standard deviations. Each group was set up in replicates of 3 wells.

Substance	T-cell proliferation against allo-antigenic (or mitogenic) stimulus in vitro [1]	level of T cell proliferation relative to control [2]	reversal of suppression/anergy induced by a MUC-1 100-mer peptide [3]
purified human MUC-1 mucin: B27.29 affinity purified MUC-1 mucin glycoprotein from cancer patient pleural effusion/ascites fluid	strongly inhibits		
GVTSAPDTRPAPGSTA [BP16]		not observed	reverses
